Source: US10364314B2, “Compound, resin, material for forming underlayer film for lithography, composition for forming underlayer film for lithography, underlayer film for lithography, resist pattern forming method, circuit pattern forming method, and purification method” (Mitsubishi Gas Chemical Company, Inc., priority 2015, dated 2019)

Test: Solubility in PGME and PGMEA at 23° C.
Type: physicochemical
Method: The amount of each compound dissolved in 1-methoxy-2-propanol (PGME) and propylene glycol monomethyl ether acetate (PGMEA) was measured at 23° C., and the results were evaluated according to the following criteria.
Evaluation A: 10% by mass or more
Evaluation B: 5% by mass or more and less than 10% by mass
Evaluation C: less than 5% by mass

Evaluation of the solubility in PGME and PGMEA	solubility in PGME and PGMEA	SMILES
A (10% by mass or more)	≥ 10 % by mass	Oc1ccc2ccc3c(c2c1)C(c1c[nH]cn1)c1c(ccc2ccc(O)cc12)O3 [IMX-1]
A (10% by mass or more)	≥ 10 % by mass	Oc1ccc2c3c(ccc2c1)Oc1ccc2cc(O)ccc2c1C3c1c[nH]cn1 [IMX-2]
A (10% by mass or more)	≥ 10 % by mass	Oc1ccc(-c2ccc(O)c(C(c3c[nH]cn3)c3cc(-c4ccc(O)cc4)ccc3O)c2)cc1 [IMX-3]
A (10% by mass or more)	≥ 10 % by mass	CCCCc1nc(C2c3c(ccc4cc(O)ccc34)Oc3ccc4cc(O)ccc4c32)c(Cl)[nH]1 [IMX-5]

SMILES	Evaluation of the solubility in PGME and PGMEA	solubility in PGME and PGMEA
Oc1ccc2c3c(ccc2c1)Oc1ccc2cc(O)ccc2c1C3c1c[nH]c(-c2ccccc2)n1 [IMX-4]	B (5% by mass or more and less than 10% by mass)	≥ 5 % by mass
